From PMC8281983 (Journal of the American Chemical Society, 2021)

Target: T1, BRCA1-associated ATM activator 1 (BRAT1) (Homo sapiens, UniProt Q6PJG6)
T1 sequence (Q6PJG6 1-821): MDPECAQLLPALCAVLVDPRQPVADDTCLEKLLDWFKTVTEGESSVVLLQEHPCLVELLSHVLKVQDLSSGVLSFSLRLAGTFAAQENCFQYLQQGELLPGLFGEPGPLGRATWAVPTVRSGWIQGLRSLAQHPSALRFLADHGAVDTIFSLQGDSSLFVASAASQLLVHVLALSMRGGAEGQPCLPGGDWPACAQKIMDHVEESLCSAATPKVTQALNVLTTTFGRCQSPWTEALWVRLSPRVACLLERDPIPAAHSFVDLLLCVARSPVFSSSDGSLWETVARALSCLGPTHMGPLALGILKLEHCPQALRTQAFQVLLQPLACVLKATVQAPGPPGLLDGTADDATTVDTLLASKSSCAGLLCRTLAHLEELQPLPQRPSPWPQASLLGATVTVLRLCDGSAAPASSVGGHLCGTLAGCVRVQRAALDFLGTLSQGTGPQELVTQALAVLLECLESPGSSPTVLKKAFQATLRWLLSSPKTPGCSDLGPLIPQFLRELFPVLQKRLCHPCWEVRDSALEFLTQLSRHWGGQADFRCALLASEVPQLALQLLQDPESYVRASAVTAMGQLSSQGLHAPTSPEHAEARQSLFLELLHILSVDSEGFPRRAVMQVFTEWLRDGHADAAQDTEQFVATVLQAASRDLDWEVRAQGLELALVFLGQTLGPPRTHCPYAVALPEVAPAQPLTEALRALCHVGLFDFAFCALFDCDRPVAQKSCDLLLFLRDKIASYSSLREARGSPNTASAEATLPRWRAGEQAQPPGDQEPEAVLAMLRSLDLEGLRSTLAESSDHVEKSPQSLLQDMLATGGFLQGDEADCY
Type: cell-based

EC50: 2700 nM
SMILES: C=C(C)C1CCC(=C)C2C3=C(C[C@@](C)(O)C3=O)C(=O)C(C)=C[C@@H]12 (stereo partly shown) [1d, curcusone D]
